Measured values reported in patent publication US12655116B2, “Substituted isophthalic acid diamides” (Bayer Aktiengesellschaft, priority 2020, dated 2026).

Key:
POLCO = assay: Pre-emergence herbicidal action against POLCO; type: in vivo, Polygonum convolvulus; conditions: for pest or weed control at 80 g/ha: Fallopia convolvulus, 504 h
Source text: Seeds of monocotyledonous and dicotyledonous weed plants and crop plants are laid out in sandy loam soil in wood-fiber pots and covered with soil. The compounds of the invention, formulated in the form of wettable powders (WP) or as emulsion concentrates (EC), are then applied to the surface of the covering soil in the form of an aqueous suspension or emulsion at a water application rate equivalent to 600 to 800 l/ha, with addition of 0.2% wetting agent. After the treatment, the pots are placed in a greenhouse and kept under good growth conditions for the trial plants. The damage to the test plants is scored visually after a test period of 3 weeks by comparison with untreated controls (herbicidal activity in percent (%): 100% activity=the plants have died, 0% activity=like control plants). […] The tables below illustrate, in an illustrative manner, the post-emergence herbicidal action of the compounds of the invention, the herbicidal activity being stated in percent.

AMARE [1] = assay: Pre-emergence herbicidal action against AMARE; type: in vivo, Amaranthus retroflexus
Summary of the method: (§1)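 Greenhouse pots of sandy loam held seeds covered with soil, onto which the compound was applied before emergence. An aqueous suspension or emulsion of WP or EC was used at 600 to 800 l/ha with 0.2% wetting agent. Percent damage was judged visually at 3 weeks.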

SETVI [2] = assay: Post-emergence herbicidal action against SETVI; type: in vivo, Setaria viridis; conditions: dosage 20 g/ha
Summary of the method: (§2)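 Foliar application at one-leaf stage of formulated test compounds, aqueous spray at 600–800 l/ha with 0.2% wetting agent. Greenhouse, optimal conditions, ~3 weeks; damage scored visually in % relative to untreated plants.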

ABUTH [3] = assay: Post-emergence herbicidal action against ABUTH; type: in vivo, Abutilon theophrasti; conditions: visual assessment about 3 weeks after treatment vs untreated controls; for pest or weed control at 5 g/ha / pest or weed control at 20 g/ha: Abutilon theophrasti, 504 h
Summary of the method: as §2

ABUTH [4] = assay: Pre-emergence herbicidal action against ABUTH; type: in vivo, Abutilon theophrasti; conditions: for pest or weed control at 80 g/ha: Abutilon theophrasti, 504 h; for pest or weed control at 80 g/ha / Pre-emergence action against ABUTH (herbicidal activity): scored visually after 3 weeks vs untreated controls (100% = plants have died, 0% = like control plants), 80 g/ha; for Pre-emergence action against ABUTH (herbicidal activity in percent): dosage 20 g/ha, scored visually after 3 weeks vs untreated controls, 100% = plants have died, 0% = like control plants
Summary of the method: as §1

SETVI [5] = assay: Pre-emergence herbicidal action against SETVI; type: in vivo, Setaria viridis; conditions: for pest or weed control at 80 g/ha: Setaria viridis, 504 h
Summary of the method: as §1

ALOMY [6] = assay: Post-emergence herbicidal action against ALOMY; type: in vivo, Alopecurus myosuroides; conditions: dosage 20 g/ha, visual assessment about 3 weeks after treatment vs untreated controls; for pest or weed control at 20 g/ha: Alopecurus myosuroides, 504 h
Summary of the method: as §2

MATIN [7] = assay: Pre-emergence herbicidal action against MATIN; type: in vivo, Matricaria inodora; conditions: for pest or weed control at 20 g/ha / pest or weed control at 80 g/ha: Tripleurospermum inodorum, 504 h
Summary of the method: as §1

ALOMY [8] = assay: Pre-emergence herbicidal action against ALOMY; type: in vivo, Alopecurus myosuroides; conditions: 80 g/ha, pre-emergence, scored visually after 3 weeks vs untreated controls (100% = plants have died, 0% = like control plants); for pest or weed control at 80 g/ha: Alopecurus myosuroides, 504 h
Summary of the method: as §1

AMARE [9] = assay: Post-emergence herbicidal action against AMARE; type: in vivo, Amaranthus retroflexus; conditions: 20 g/ha, visual assessment about 3 weeks after treatment, 100% = plants have died, 0% = like control plants; for pest or weed control at 20 g/ha: Amaranthus retroflexus, 504 h
Summary of the method: as §2

VERPE [10] = assay: Post-emergence herbicidal action against VERPE; type: in vivo, Veronica persica; conditions: 20 g/ha; for pest or weed control at 20 g/ha: Veronica persica, 504 h
Summary of the method: as §2

VIOTR [11] = assay: Post-emergence herbicidal action against VIOTR; type: in vivo, Viola tricolor; conditions: 20 g/ha; for pest or weed control at 20 g/ha: Viola tricolor, 504 h
Summary of the method: as §2

ECHCG [12] = assay: Post-emergence herbicidal action against ECHCG; type: in vivo, Echinochloa crus-galli
Summary of the method: as §2

PHBPU = assay: Post-emergence herbicidal action against PHBPU; type: in vivo, Pharbitis purpurea; conditions: dosage 20 g/ha
Summary of the method: as §2

VERPE [13] = assay: Pre-emergence herbicidal action against VERPE; type: in vivo, Veronica persica; conditions: dosage 80 g/ha
Summary of the method: as §1

VIOTR [14] = assay: Pre-emergence herbicidal action against VIOTR; type: in vivo, Viola tricolor
Summary of the method: as §1

MATIN [15] = assay: Post-emergence herbicidal action against MATIN; type: in vivo, Matricaria inodora; conditions: dosage 20 g/ha
Summary of the method: as §2

DIGSA [16] = assay: Pre-emergence herbicidal action against DIGSA; type: in vivo, Digitaria sanguinalis
Summary of the method: as §1

ECHCG [17] = assay: Pre-emergence herbicidal action against ECHCG; type: in vivo, Echinochloa crus-galli; conditions: 80 g/ha
Summary of the method: as §1

DIGSA [18] = assay: Post-emergence herbicidal action against DIGSA; type: in vivo, Digitaria sanguinalis; conditions: 20 g/ha
Summary of the method: as §2

AVEFA = assay: Pre-emergence herbicidal action against AVEFA; type: in vivo, Avena fatua; conditions: 80 g/ha, pre-emergence
Summary of the method: as §1

[19] = Amaranthus retroflexus, 504 h, 80 g/ha, scored visually after 3 weeks vs untreated controls, 100% = plants have died, 0% = like control plants
[20] = 20 g/ha, scored visually after 3 weeks vs untreated controls, 100% = plants have died, 0% = like control plants
[21] = 80 g/ha, scored visually after 3 weeks vs untreated controls (100% = plants have died, 0% = like control plants)

SMILES	pest or weed control at 80 g/ha (POLCO; dosage 80 g/ha) [%]	pest or weed control at 80 g/ha (AMARE [1]; [19]) [%]	pest or weed control at 5 g/ha (ABUTH [3]; dosage 5 g/ha) [%]	pest or weed control at 20 g/ha (ABUTH [3]; dosage 20 g/ha) [%]	pest or weed control at 80 g/ha (ABUTH [4]) [%]	pest or weed control at 80 g/ha (SETVI [5]; dosage 80 g/ha) [%]	pest or weed control at 20 g/ha (ALOMY [6]) [%]	pest or weed control at 20 g/ha (MATIN [7]; dosage 20 g/ha) [%]	pest or weed control at 80 g/ha (MATIN [7]; dosage 80 g/ha) [%]	Post-emergence action against ECHCG in % (ECHCG [12]; dosage 20 g/ha) [%]	Pre-emergence action against POLCO in % (POLCO; dosage 80 g/ha) [%]	Pre-emergence action against AMARE in % (AMARE [1]; [20]) [%]	Pre-emergence action against AMARE in % (AMARE [1]; [21]) [%]	Post-emergence action against ABUTH in % (ABUTH [3]; dosage 20 g/ha) [%]	Pre-emergence action against ABUTH (herbicidal activity) (ABUTH [4]) [%]	Pre-emergence action against SETVI in % (SETVI [5]; dosage 80 g/ha) [%]	Pre-emergence action against MATIN in % (MATIN [7]; dosage 80 g/ha) [%]	Pre-emergence action against ALOMY (herbicidal activity) (ALOMY [8]) [%]	Pre-emergence action against ECHCG in % (ECHCG [17]) [%]	Pre-emergence action against VIOTR in % (VIOTR [14]; dosage 80 g/ha) [%]	also measured
CNC(=O)c1c(OC)ccc(C(=O)Nc2nnnn2C)c1Cl [Example 1-354]	80	100	90	100	100	90	80	80	80												pest or weed control at 20 g/ha (SETVI [2]; Setaria viridis, 504 h): 100%; pest or weed control at 80 g/ha (ALOMY [8]): 80%; pest or weed control at 20 g/ha (AMARE [9]): 100%; pest or weed control at 20 g/ha (VERPE [10]): 90%; pest or weed control at 20 g/ha (VIOTR [11]): 90%
CCNC(=O)c1c(OC)ccc(C(=O)Nc2nnnn2C)c1Cl [Example 1-355]	80	100	80	100	100	90	80	80	100												pest or weed control at 20 g/ha (ECHCG [12]; Echinochloa crus-galli, 504 h, dosage 20 g/ha): 90%; pest or weed control at 20 g/ha (PHBPU; Ipomoea purpurea, 504 h): 80%; pest or weed control at 20 g/ha (AMARE [1]; Amaranthus retroflexus, 504 h, 20 g/ha, scored visually after 3 weeks vs untreated controls, 100% = plants have died, 0% = like control plants): 100%; pest or weed control at 80 g/ha (ALOMY [8]): 90%; pest or weed control at 20 g/ha (AMARE [9]): 100%; pest or weed control at 20 g/ha (VERPE [10]): 90%; pest or weed control at 80 g/ha (VERPE [13]; Veronica persica, 504 h): 100%; pest or weed control at 20 g/ha (VIOTR [11]): 100%; pest or weed control at 80 g/ha (VIOTR [14]; Viola tricolor, 504 h, dosage 80 g/ha): 100%
CCn1nnnc1NC(=O)c1ccc(C(F)F)c(C(=O)NC)c1OC [Example 2-72]										80	80	100	100	80	100	100	100	80	100	100	Post-emergence action against ECHCG in % (ECHCG [12]; dosage 5 g/ha): 80%; Post-emergence action against MATIN in % (MATIN [15]): 80%; Post-emergence action against PHBPU in % (PHBPU): 80%; Pre-emergence action against DIGSA in % (DIGSA [16]; dosage 20 g/ha): 100%; Pre-emergence action against DIGSA in % (DIGSA [16]; dosage 80 g/ha): 100%; Pre-emergence action against POLCO in % (POLCO; dosage 20 g/ha): 80%; Post-emergence action against SETVI in % (SETVI [2]): 80%; Post-emergence action against ABUTH in % (ABUTH [3]; dosage 5 g/ha): 80%; Pre-emergence action against ABUTH (herbicidal activity in percent) (ABUTH [4]): 100%; Pre-emergence action against MATIN in % (MATIN [7]; dosage 20 g/ha): 100%; Post-emergence action against VERPE in % (VERPE [10]): 80%; Pre-emergence action against VERPE in % (VERPE [13]): 90%; Post-emergence action against VIOTR in % (VIOTR [11]): 80%; Pre-emergence action against VIOTR in % (VIOTR [14]; dosage 20 g/ha): 100%
CCNC(=O)c1c(C(F)F)ccc(C(=O)Nc2nnc(C)o2)c1Br [Example 6-165]										100	80	100	100	90	100	100	100	80	100	90	Post-emergence action against ECHCG in % (ECHCG [12]; dosage 5 g/ha): 90%; Pre-emergence action against DIGSA in % (DIGSA [16]; dosage 20 g/ha): 90%; Pre-emergence action against DIGSA in % (DIGSA [16]; dosage 80 g/ha): 100%; Post-emergence action against SETVI in % (SETVI [2]): 80%; Post-emergence action against DIGSA (DIGSA [18]): 90%; Pre-emergence action against SETVI in % (SETVI [5]; dosage 20 g/ha): 90%; Post-emergence action against ALOMY in % (ALOMY [6]): 80%; Pre-emergence action against MATIN in % (MATIN [7]; dosage 20 g/ha): 80%; Post-emergence action at 20 g/ha against AMARE in % (AMARE [9]): 80%; Post-emergence action against VIOTR in % (VIOTR [11]): 80%; Pre-emergence action against VIOTR in % (VIOTR [14]; dosage 20 g/ha): 80%
CCNC(=O)c1c(C(F)(F)F)ccc(C(=O)Nc2nnc(C)o2)c1CC [Example 6-211]										90	90	100	100	90	100	100	90	90	100	80	Post-emergence action against ABUTH in % (ABUTH [3]; dosage 5 g/ha): 80%; Pre-emergence action against ABUTH (herbicidal activity in percent) (ABUTH [4]): 90%; Post-emergence action at 20 g/ha against AMARE in % (AMARE [9]): 90%; Pre-emergence action against AVEFA in % (AVEFA): 80%; Pre-emergence action against VERPE in % (VERPE [13]): 80%
